# Laboratory results reported in PubChem BioAssay (NCI).
#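 Briefly, cells in 96-well plates were exposed to five compound concentrations for 48 h, and endpoints were estimated by linear interpolation. GI50 is the concentration that inhibits growth by half. The concentration for full growth arrest is given as TGI.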
# Columns and labels:
# Assay in all cases: NCI tumour cell line growth inhibition, 48 h
# [1] = tested on: SK-MEL-2 melanoma
# [2] = tested on: SF-539 CNS
# [3] = tested on: BT-549 breast
# [4] = tested on: OVCAR-5 ovarian
# [5] = tested on: RXF 393 renal
# [6] = tested on: UACC-62 melanoma
# [7] = tested on: NCI-H460 lung
# [8] = tested on: LOX IMVI melanoma
# [9] = tested on: CAKI-1 renal
# [10] = tested on: NCI-H522 lung
# [11] = tested on: IGROV1 ovarian
# [12] = tested on: SNB-75 CNS
# [13] = tested on: NCI-H23 lung
# [14] = tested on: HCC-2998 colon
# [15] = tested on: NCI/ADR-RES ovarian
# [16] = tested on: U251 CNS
# [17] = tested on: OVCAR-4 ovarian
# [18] = tested on: MDA-MB-231 breast
# [19] = tested on: OVCAR-8 ovarian
# [20] = tested on: SF-295 CNS
# [21] = tested on: ACHN renal
# [22] = tested on: SF-268 CNS
# [23] = tested on: UACC-257 melanoma
# [24] = tested on: MCF7 breast
# [25] = tested on: TK-10 renal
# [26] = tested on: SNB-19 CNS
# [27] = tested on: PC-3 prostate
# [28] = tested on: DU-145 prostate
# [29] = tested on: KM12 colon
# [30] = tested on: HCT-116 colon
# [31] = tested on: CCRF-CEM leukemia
# [32] = tested on: SN12C renal
# [33] = tested on: MDA-MB-435
# [34] = tested on: RPMI-8226 leukemia
# [35] = tested on: MALME-3M melanoma
# [36] = tested on: SW-620 colon
# [37] = tested on: MOLT-4 leukemia
# [38] = tested on: COLO 205 colon
# [39] = tested on: 786-0 renal
# [40] = tested on: NCI-H226 lung
# [41] = tested on: SK-MEL-5 melanoma
# [42] = tested on: A549 NSCLC
# [43] = tested on: OVCAR-3 ovarian
# [44] = tested on: SK-MEL-28 melanoma
# [45] = tested on: SK-OV-3 ovarian
# [46] = tested on: HOP-92 NSCLC
# [47] = tested on: UO-31 renal
# [48] = tested on: EKVX NSCLC
# [49] = tested on: HOP-62 NSCLC
# [50] = tested on: T-47D breast
# [51] = tested on: HT29 colon
# [52] = tested on: M14 melanoma
# [53] = tested on: HCT-15 colon
# [54] = tested on: SR leukemia
structure (smiles),measurement,setting,value
O=C(COc1nc2ccccc2nc1-c1ccccc1)Nc1ccc(Cl)cc1,GI50,[1],15.1 µM
same,TGI,[1],58 µM
same,GI50,[2],14.5 µM
same,TGI,[2],45.4 µM
same,GI50,[3],33.6 µM
same,TGI,[3],> 100 µM
same,GI50,[4],11 µM
same,TGI,[4],> 100 µM
same,GI50,[5],29.3 µM
same,TGI,[5],80 µM
same,GI50,[6],12.9 µM
same,TGI,[6],67.7 µM
same,GI50,[7],9.79 µM
same,TGI,[7],77.8 µM
same,GI50,[8],15.7 µM
same,TGI,[8],49.2 µM
same,GI50,[9],9.04 µM
same,TGI,[9],> 100 µM
same,GI50,[10],3.5 µM
same,TGI,[10],28.6 µM
same,GI50,[11],14.3 µM
same,TGI,[11],49.4 µM
same,GI50,[12],27.7 µM
same,TGI,[12],> 100 µM
same,GI50,[13],24.9 µM
same,TGI,[13],> 100 µM
same,GI50,[14],15.6 µM
same,TGI,[14],> 100 µM
same,GI50,[15],4.46 µM
same,TGI,[15],> 100 µM
same,GI50,[16],13.2 µM
same,TGI,[16],56.4 µM
same,GI50,[17],27.7 µM
same,TGI,[17],> 100 µM
same,GI50,[18],15.1 µM
same,TGI,[18],65 µM
same,GI50,[19],11.3 µM
same,TGI,[19],> 100 µM
same,GI50,[20],5.09 µM
same,TGI,[20],40.1 µM
same,GI50,[21],14.4 µM
same,TGI,[21],37.9 µM
same,GI50,[22],18.5 µM
same,TGI,[22],> 100 µM
same,GI50,[23],50.1 µM
same,TGI,[23],> 100 µM
same,GI50,[24],36.8 µM
same,TGI,[24],> 100 µM
same,GI50,[25],15.1 µM
same,TGI,[25],76.8 µM
same,GI50,[26],21.6 µM
same,TGI,[26],89.1 µM
same,GI50,[27],9.99 µM
same,TGI,[27],> 100 µM
same,GI50,[28],54.9 µM
same,TGI,[28],> 100 µM
same,GI50,[29],8.38 µM
same,TGI,[29],> 100 µM
same,GI50,[30],6.23 µM
same,TGI,[30],27.8 µM
same,GI50,[31],17.3 µM
same,TGI,[31],> 100 µM
same,GI50,[32],27.4 µM
same,TGI,[32],> 100 µM
same,GI50,[33],18.4 µM
same,TGI,[33],> 100 µM
same,GI50,[34],23.1 µM
same,TGI,[34],> 100 µM
same,GI50,[35],20.9 µM
same,TGI,[35],66.3 µM
same,GI50,[36],25.7 µM
same,TGI,[36],> 100 µM
same,GI50,[37],12.6 µM
same,TGI,[37],> 100 µM
same,GI50,[38],15.5 µM
same,TGI,[38],> 100 µM
same,GI50,[39],14.3 µM
same,TGI,[39],71.3 µM
same,GI50,[40],10.2 µM
same,TGI,[40],49.1 µM
same,GI50,[41],4.17 µM
same,TGI,[41],19.7 µM
same,GI50,[42],27.8 µM
same,TGI,[42],> 100 µM
same,GI50,[43],5.56 µM
same,TGI,[43],36.9 µM
same,GI50,[44],18.7 µM
same,TGI,[44],> 100 µM
same,GI50,[45],47.6 µM
same,TGI,[45],> 100 µM
same,GI50,[46],8.77 µM
same,TGI,[46],36.7 µM
same,GI50,[47],17.1 µM
same,TGI,[47],> 100 µM
same,GI50,[48],26.9 µM
same,TGI,[48],> 100 µM
same,GI50,[49],11.9 µM
same,TGI,[49],40.2 µM
same,GI50,[50],37.5 µM
same,TGI,[50],> 100 µM
same,GI50,[51],11.4 µM
same,TGI,[51],> 100 µM
same,GI50,[52],11.4 µM
same,TGI,[52],80.7 µM
same,GI50,[53],15.1 µM
same,TGI,[53],> 100 µM
same,GI50,[54],6.54 µM
same,TGI,[54],> 100 µM
